Experimental data: ChEMBL document CHEMBL3885881, “DrugMatrix”
Starred links: 1 amine or outer side, 2 acyl side, 3 side chain; linkers in the order of their positions; H or OH if unused. Positions of bridges follow the written chain, without caps; N, C: chain ends. Non-standard residues stand in square brackets, D forms with d. Residues, ends and D or L forms follow the SMILES beside them. Chains are numbered I, II in the order given. Actinocin(9to1) = Cc1c2oc3c(C)ccc(C(=O)[*:1])c3nc-2c(C(=O)[*:2])c(N)c1=O; NMeV = CN[C@H](C(=O)O)C(C)C; Sar = CNCC(=O)O

Organism: Rattus norvegicus
Experiment: DrugMatrix - Regimen: Daily Repeat
Format: toxicity, organism-based, Sprague-Dawley
Set-up: regimen Daily Repeat, gender Male, age 6-8 weeks
Details: in vivo, iv, vehicle 100 % SALINE; for ABSOLUTE BASOPHIL / ABSOLUTE EOSINOPHIL / ABSOLUTE LYMPHOCYTE / ABSOLUTE MONOCYTE / ABSOLUTE SEGMENTED NEUTROPHIL / BASOPHIL / EOSINOPHIL / ERYTHROCYTE COUNT / HEMATOCRIT / HEMOGLOBIN / LEUKOCYTE COUNT / LYMPHOCYTE / MEAN CORPUSCULAR HEMOGLOBIN / MEAN CORPUSCULAR HEMOGLOBIN CONCENTRATION / MEAN CORPUSCULAR VOLUME / MONOCYTE / NEUTROPHIL / NUCLEATED RED BLOOD CELLS / PLATELET COUNT: tissue Blood; for ALANINE AMINOTRANSFERASE / ALBUMIN / ALKALINE PHOSPHATASE / ASPARTATE AMINOTRANSFERASE / BLOOD UREA NITROGEN / CARBON DIOXIDE / CHLORIDE / CHOLESTEROL / CREATINE PHOSPHOKINASE / CREATININE / GLUCOSE / LACTATE DEHYDROGENASE / LIPASE / PHOSPHORUS / POTASSIUM / SODIUM / TOTAL BILIRUBIN / TOTAL PROTEIN / URIC ACID: tissue Plasma
[1] = 0 mg/kg, 72 h, dose level Control, time 3 day
[2] = 0 mg/kg, 120 h, dose level Control, time 5 day
[3] = 0.006 mg/kg, 72 h, dose level Low, time 3 day

## Cc1c2oc3c(C)ccc(C(=O)N[C@@H]4C(=O)N[C@H](C(C)C)C(=O)N5CCC[C@H]5C(=O)N(C)CC(=O)N(C)[C@@H](C(C)C)C(=O)O[C@@H]4C)c3nc-2c(C(=O)N[C@@H]2C(=O)N[C@H](C(C)C)C(=O)N3CCC[C@H]3C(=O)N(C)CC(=O)N(C)[C@@H](C(C)C)C(=O)O[C@@H]2C)c(N)c1=O [DACTINOMYCIN] (I: T[dV]P[Sar][NMeV] / II: T[dV]P[Sar][NMeV]; ester I:1-I:C, II:1-II:C; linker I:N-II:N via Actinocin(9to1))
[1]
  ABSOLUTE BASOPHIL: 0 CELLS/uL
  ABSOLUTE EOSINOPHIL: 33.67 CELLS/uL
  ABSOLUTE LYMPHOCYTE: 12123.5 CELLS/uL
  ABSOLUTE MONOCYTE: 243.5 CELLS/uL
  ABSOLUTE SEGMENTED NEUTROPHIL: 1282.67 CELLS/uL
  BASOPHIL: 0%
  EOSINOPHIL: 0.33%
  ERYTHROCYTE COUNT: 5.18 x10E6/uL
  HEMATOCRIT: 32.63%
  HEMOGLOBIN: 12.87 G/DL
  LEUKOCYTE COUNT: 13.68 x10E3/uL
  LYMPHOCYTE: 88.67%
  MEAN CORPUSCULAR HEMOGLOBIN: 24.98 pg
  MEAN CORPUSCULAR HEMOGLOBIN CONCENTRATION: 39.48 G/DL
  MEAN CORPUSCULAR VOLUME: 63.23 fL
  MONOCYTE: 1.83%
  NEUTROPHIL: 9.17%
  NUCLEATED RED BLOOD CELLS: 0.17 /100WBC
  PLATELET COUNT: 1114.5 x10E3/uL
  ALANINE AMINOTRANSFERASE: 46.17 u/L
  ALBUMIN: 4.15 G/DL
  ALKALINE PHOSPHATASE: 374.67 u/L
  ASPARTATE AMINOTRANSFERASE: 89.33 u/L
  BLOOD UREA NITROGEN: 14.83 mg/dL
  CARBON DIOXIDE: 25.67 mmol/L
  CHLORIDE: 101.17 MEQ/L
  CHOLESTEROL: 63.5 mg/dL
  CREATINE PHOSPHOKINASE: 494.67 u/L
  CREATININE: 0.17 mg/dL
  GLUCOSE: 163 mg/dL
  LACTATE DEHYDROGENASE: 269.33 u/L
  LIPASE: 10.67 u/L
  PHOSPHORUS: 11.27 mg/dL
  POTASSIUM: 5.85 MEQ/L
  SODIUM: 141.68 MEQ/L
  TOTAL BILIRUBIN: 0.18 mg/dL
  TOTAL PROTEIN: 5.87 G/DL
  URIC ACID: 1.28 mg/dL
[2]
  ABSOLUTE BASOPHIL: 0 CELLS/uL
  ABSOLUTE EOSINOPHIL: 24.67 CELLS/uL
  ABSOLUTE LYMPHOCYTE: 11832.83 CELLS/uL
  ABSOLUTE MONOCYTE: 279.67 CELLS/uL
  ABSOLUTE SEGMENTED NEUTROPHIL: 1446.17 CELLS/uL
  BASOPHIL: 0%
  EOSINOPHIL: 0.17%
  ERYTHROCYTE COUNT: 5.61 x10E6/uL
  HEMATOCRIT: 35.02%
  HEMOGLOBIN: 13.82 G/DL
  LEUKOCYTE COUNT: 13.58 x10E3/uL
  LYMPHOCYTE: 87.67%
  MEAN CORPUSCULAR HEMOGLOBIN: 24.68 pg
  MEAN CORPUSCULAR HEMOGLOBIN CONCENTRATION: 39.5 G/DL
  MEAN CORPUSCULAR VOLUME: 62.42 fL
  MONOCYTE: 2%
  NEUTROPHIL: 10.17%
  NUCLEATED RED BLOOD CELLS: 0 /100WBC
  PLATELET COUNT: 1178.17 x10E3/uL
  ALANINE AMINOTRANSFERASE: 52.83 u/L
  ALBUMIN: 4.12 G/DL
  ALKALINE PHOSPHATASE: 370 u/L
  ASPARTATE AMINOTRANSFERASE: 100.5 u/L
  BLOOD UREA NITROGEN: 15.17 mg/dL
  CARBON DIOXIDE: 28.83 mmol/L
  CHLORIDE: 101 MEQ/L
  CHOLESTEROL: 69.5 mg/dL
  CREATINE PHOSPHOKINASE: 488.67 u/L
  CREATININE: 0.23 mg/dL
  GLUCOSE: 165 mg/dL
  LACTATE DEHYDROGENASE: 502.17 u/L
  LIPASE: 11 u/L
  PHOSPHORUS: 11.7 mg/dL
  POTASSIUM: 5.85 MEQ/L
  SODIUM: 142.45 MEQ/L
  TOTAL BILIRUBIN: 0.18 mg/dL
  TOTAL PROTEIN: 5.85 G/DL
  URIC ACID: 1.43 mg/dL
[3]
  ABSOLUTE BASOPHIL: 0 CELLS/uL
  ABSOLUTE EOSINOPHIL: 0 CELLS/uL
  ABSOLUTE LYMPHOCYTE: 7777.33 CELLS/uL
  ABSOLUTE MONOCYTE: 151.33 CELLS/uL
  ABSOLUTE SEGMENTED NEUTROPHIL: 1138 CELLS/uL
  BASOPHIL: 0%
  EOSINOPHIL: 0%
  ERYTHROCYTE COUNT: 5.68 x10E6/uL
  HEMATOCRIT: 35.57%
  HEMOGLOBIN: 13.43 G/DL
  LEUKOCYTE COUNT: 9.07 x10E3/uL
  LYMPHOCYTE: 85.67%
  MEAN CORPUSCULAR HEMOGLOBIN: 23.67 pg
  MEAN CORPUSCULAR HEMOGLOBIN CONCENTRATION: 37.77 G/DL
  MEAN CORPUSCULAR VOLUME: 62.63 fL
  MONOCYTE: 1.67%
  NEUTROPHIL: 12.67%
  NUCLEATED RED BLOOD CELLS: 0 /100WBC
  PLATELET COUNT: 1053 x10E3/uL
  ALANINE AMINOTRANSFERASE: 49.33 u/L
  ALBUMIN: 4.33 G/DL
  ALKALINE PHOSPHATASE: 363.33 u/L
  ASPARTATE AMINOTRANSFERASE: 85.33 u/L
  BLOOD UREA NITROGEN: 14 mg/dL
  CARBON DIOXIDE: 26 mmol/L
  CHLORIDE: 101.67 MEQ/L
  CHOLESTEROL: 85.33 mg/dL
  CREATINE PHOSPHOKINASE: 333 u/L
  CREATININE: 0.25 mg/dL
  GLUCOSE: 155.67 mg/dL
  LACTATE DEHYDROGENASE: 134 u/L
  LIPASE: 11 u/L
  PHOSPHORUS: 10.57 mg/dL
  POTASSIUM: 6.37 MEQ/L
  SODIUM: 143.37 MEQ/L
  TOTAL BILIRUBIN: 0.3 mg/dL
  TOTAL PROTEIN: 6.17 G/DL
  URIC ACID: 1.6 mg/dL
